Results taken from article PMC7762957, “Snapshots during the catalytic cycle of a histidine acid phytase reveal an induced-fit structural mechanism” (The Journal of Biological Chemistry, 2020).

What was measured:
[1] = molecular target: T1, EcAppA (Escherichia coli, UniProt P07102); assay: HPLC of inositol polyphosphate products; assay type: biochemical; settings: pH 5.5, 200 mM sodium acetate, 150 mM NaCl; 1 mM substrate, 25 nM enzyme
T1 construct: gene appA; pOPINB, N-terminal cleavable His tag, cytoplasmic expression in E. coli Shuffle Express T7; Ni-NTA and gel filtration
T1 sequence (P07102 23-432): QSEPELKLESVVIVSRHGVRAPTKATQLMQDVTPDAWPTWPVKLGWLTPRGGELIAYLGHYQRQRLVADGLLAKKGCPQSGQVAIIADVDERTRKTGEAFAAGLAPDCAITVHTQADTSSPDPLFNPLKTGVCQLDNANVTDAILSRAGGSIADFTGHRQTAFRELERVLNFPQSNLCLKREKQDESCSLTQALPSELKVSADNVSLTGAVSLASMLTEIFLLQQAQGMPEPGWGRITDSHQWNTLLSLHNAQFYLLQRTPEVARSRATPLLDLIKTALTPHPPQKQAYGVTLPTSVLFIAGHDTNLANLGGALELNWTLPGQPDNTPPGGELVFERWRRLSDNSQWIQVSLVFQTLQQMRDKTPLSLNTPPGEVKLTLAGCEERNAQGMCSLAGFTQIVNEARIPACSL

[2] = molecular target: T2, AnPhyA (Aspergillus niger, UniProt P34752); assay: HPLC of inositol polyphosphate products; assay type: biochemical; settings: pH 5.5, 200 mM sodium acetate, 150 mM NaCl; 1 mM substrate, 25 nM enzyme
T2 construct: gene phyA; codon-optimised, N-terminal 3C site, C-terminal His6; secreted from Pichia pastoris KM71H; Ni-NTA purified
T2 sequence (P34752 24-467): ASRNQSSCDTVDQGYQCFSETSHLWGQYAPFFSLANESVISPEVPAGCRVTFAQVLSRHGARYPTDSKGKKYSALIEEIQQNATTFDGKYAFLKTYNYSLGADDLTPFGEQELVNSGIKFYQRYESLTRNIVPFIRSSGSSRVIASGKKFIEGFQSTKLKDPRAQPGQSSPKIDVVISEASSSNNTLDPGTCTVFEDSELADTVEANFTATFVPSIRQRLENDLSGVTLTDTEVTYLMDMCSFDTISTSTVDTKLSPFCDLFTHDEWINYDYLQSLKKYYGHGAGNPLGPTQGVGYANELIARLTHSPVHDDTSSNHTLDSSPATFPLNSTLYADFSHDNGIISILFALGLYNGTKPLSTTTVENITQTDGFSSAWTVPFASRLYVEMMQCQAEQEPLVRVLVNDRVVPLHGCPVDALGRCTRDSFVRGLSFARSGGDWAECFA

[3] = molecular target: T3, BtMINPP (Bacteroides thetaiotaomicron, UniProt Q89YI8); assay: HPLC of inositol polyphosphate products; assay type: biochemical; settings: pH 5.5, 200 mM sodium acetate, 150 mM NaCl; 1 mM substrate, 25 nM enzyme
T3 construct: gene BT_4744
T3 sequence (Q89YI8 21-425): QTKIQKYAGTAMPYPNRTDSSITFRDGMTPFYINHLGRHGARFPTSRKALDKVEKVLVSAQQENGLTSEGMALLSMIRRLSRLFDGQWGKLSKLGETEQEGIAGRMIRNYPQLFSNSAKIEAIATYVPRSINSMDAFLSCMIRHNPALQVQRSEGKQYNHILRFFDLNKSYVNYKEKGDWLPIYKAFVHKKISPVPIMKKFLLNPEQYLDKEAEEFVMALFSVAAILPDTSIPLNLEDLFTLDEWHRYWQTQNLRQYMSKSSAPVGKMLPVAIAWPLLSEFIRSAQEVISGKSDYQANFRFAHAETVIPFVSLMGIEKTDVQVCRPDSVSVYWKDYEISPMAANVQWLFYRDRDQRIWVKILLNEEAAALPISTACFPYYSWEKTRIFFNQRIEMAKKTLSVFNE

[4] = molecular target: BlMINPP (Bifidobacterium longum, UniProt B7GTV0); assay: X-ray crystal structure of complex, […] A; assay type: binding; design: gene Blon_0263; N-terminal His6 tag cleaved (WT: pOPINF, 3C protease; variants: pET28a, thrombin); E. coli Rosetta(DE3) pLysS; settings: non-hydrolysable substrate analogue in active site, two orientations; co-crystallised with 1 mM InsS6
[5] = substrate: O=P(O)(O)O[C@H]1[C@H](OP(=O)(O)O)[C@@H](OP(=O)(O)O)[C@H](OP(=O)(O)O)[C@@H](OP(=O)(O)O)[C@H]1OP(=O)(O)O; assay: purified protein; settings: pH 5.5, 200 mM sodium acetate, 0.15 M NaCl, room temperature, 25 nM enzyme

**Q.** For O=P(O)(O)O[C@H]1[C@H](OP(=O)(O)O)[C@@H](OP(=O)(O)O)[C@H](OP(=O)(O)O)[C@@H](OP(=O)(O)O)[C@H]1OP(=O)(O)O [InsP6, myo-Inositol 1,2,3,4,5,6-hexakisphosphate], which “HPLC of inositol polyphosphate products” value [1] is on record?
**A.** The value was “E.coli AppA, which is accepted to possess high positional specificity”.

**Q.** What about the “HPLC of inositol polyphosphate products” value [2] of the same molecule?
**A.** Its value is “products of InsP6 hydrolysis by BlMINPP, BtMINPP, A. niger PhyA (AnPhyA)”.

**Q.** And the “HPLC of inositol polyphosphate products” value [3]?
**A.** Its value is “HPLC chromatograms of the products of InsP6 hydrolysis by BlMINPP, BtMINPP”.

**Q.** Which “X-ray crystal structure of complex, 1.84 A” value [4] does the source give for O=S(=O)(O)O[C@H]1[C@H](OS(=O)(=O)O)[C@@H](OS(=O)(=O)O)[C@H](OS(=O)(=O)O)[C@@H](OS(=O)(=O)O)[C@H]1OS(=O)(=O)O [InsS6] here?
**A.** The value was “A crystal of the purified recombinant enzyme grown in the presence of an excess InsS6”.

B1: BlMINPP (Bifidobacterium longum subsp. infantis ATCC 15697 = JCM 1222 = DSM 20088) (protein)
chain: MEADGRYYSSKQPYVAPNDATASSYSKAPKGYGPIYTESMARHGSRGLSSYKYDALLMRMAETAARDGGFKSEAIKAEFVKNLSGITAANVENGYGMLTGQGAQQHYGIGERAYQRNRSLFDQAAADGGTIAYQSSGEARATESGENFEKGFNEASGGRLIGNVSAPTNPADSGNGKDFQKNPDTLYFHKVQNPDGTSKVPGTKAYDIANNYQNFVANDATIAGAEKTIGDNVDVKRASHDLLSQIFTEEFLAKLENGEYKWYNTTDGTKKGGKNCAPGADASKDPDACGEVSKKIKSEYDAAMDLYNLYIIAADMHNENTGDHTFAFDQYFQGAYADDARMFAWALDAEDFYEKGPSYAGQNETYSIAQPLLDDFLNTIDARVNGGSTVATFRFAHAETMMPFAALLGLPGSTQQAPASTTDVYTYGNNEWRGESVTPMAANVQWDVYARKGEDPATGQRYTPIVRMLYNENEVPFRSECTPVADGSTWYKLTELKSCLAADHKTLGQDARI
**Q.** Which results are given for B1?
**A.** Km [5]: 54.5 ± 8.4 µM; kcat [5]: 46.8 s⁻¹; kcat/Km [5]: 900000 M⁻¹ s⁻¹
